Measurements from patent publication US20050143358A1, “Methods for reducing body fat using vitamin D compounds” (Deltanoid Pharmaceuticals, Inc., priority 2003, published 2005).
“Also recorded” adds a separate entry of the source.

Key:
[1] = cited from earlier work
human leukemia cells = conditions: biological testing of 19-nor-analogs; cited from earlier work
ovariectomized rats = experiment: Whole body DEXA body composition in ovariectomized rats (Example 3); type: in vivo, rat
Description: FIG. 1 is a flow-chart illustrating the experimental design of the investigations described herein. Female Sprague Dawley rats (Taconic, German Town, N.Y.) were placed on a purified diet of 0.5% calcium and 0.4% phosphorus (AIN-76A Rodent Diet, prepared by Research Diet, Inc., New Brunswick, N.J.). At 4 months of age, a first subset (20) of the animals was sham-operated while a second subset (90) was ovariectomized. The time of ovariectomy is designated as week 0. Eight weeks after this surgery, the ovariectomized animals were divided into experimental groups receiving the following dosing regimen: 2MD, at doses of 0.5, 1.0, 2.5, 5.0 and 10 ng/kg/day; calcitriol (the active form of vitamin D), at doses of 50 ng/kg/day and 200 ng/kg/day; and human parathyroid hormone hPTH, at doses of 20 μg/kg/day. The 2MD and the calcitriol were administered orally in 100 μl of vegetable oil delivered to the back of the tongue by a throat tube, while the hPTH was administered sub-cutaneously.
Serum calcium was measured by tail bleeding at week 14 ([…]), week 21 and week 24. At week 24, the animals were sacrificed and the following endpoint measurements were taken: whole body DEXA; bone markers: osteocalcin and deoxypyridinoline (DPD); peripheral quantitative computed tomography (pQCT) of the distal femoral metaphysis (DFM) and femoral shaft (FS); micro-computerized tomography (micro-CT) of the DFM; serum parathyroid hormone (PTH); histomorphometry of the proximal tibial metaphysis (PTM), lumbar vertebra 3 (LV3) and trabecular separation (TS); and bone strength of the DFM, FS and lumbar vertebra 5 (LV5).
At week 0, the animals underwent surgical treatment as explained above. The animals were allowed to recuperate for 8 weeks before the dosing regimen began (0 wk). At 24 weeks post-surgery the animals were sacrificed and endpoint measurements were taken as explained above.

osteoblast cell line = conditions: Yamamoto et al., J. Biol. Chem. 278, 31756 (2003); cited from earlier work
[2] = studies described in Shevde et al.; cited from earlier work
[3] = 200 ng/kg/day oral, DEXA, FIG. 4
[4] = 10 ng/kg/day oral, DEXA, FIG. 3
[5] = 10 ng/kg/day oral, DEXA, FIG. 4
[6] = doses of at least 2.5 ng/kg/day, DEXA, FIG. 4

## C[C@H](CCCC(C)(C)O)[C@H]1CC[C@H]2/C(=C/C=C3C[C@@H](O)C[C@H](O)C3)CCC[C@]12C [1α,25-dihydroxy-19-nor-vitamin D3, reference compound]
[1]; biological testing of 19-nor-analogs
  calcium mobilizing activity: very low
Human leukemia cells
  potency in inducing cellular differentiation: high potency

## C=C1/C(=C\C=C2/CCC[C@]3(C)[C@@H]([C@H](C)CCCC(C)(C)O)CC[C@@H]23)C[C@@H](O)C[C@@H]1O [calcitriol, 1α,25-dihydroxyvitamin D3, reference compound]
Ovariectomized rats; 50 ng/kg/day oral, DEXA, FIG. 3
  percent body fat compared to ovariectomized controls: at most only a minor difference
Ovariectomized rats; 200 ng/kg/day oral, DEXA, FIG. 3
  percent body fat compared to ovariectomized controls: significant decrease
Ovariectomized rats; [3]
  body fat compared to ovariectomized controls: less body fat
  body fat compared to sham-operated controls: noticeable increase in body fat
Ovariectomized rats; calcitriol group, DEXA, FIG. 4
  body weight compared to ovariectomized controls: only a tendency for reduction
  overall body weight compared to sham-controls: increase in overall body weight
Ovariectomized rats; even at much higher doses than 2MD
  reduction of total body weight: did not act to significantly reduce

## C=C1[C@H](O)CC(=C/C=C2\CCC[C@]3(C)[C@@H]([C@@H](C)CCCC(C)(C)O)CC[C@@H]23)C[C@H]1O [2MD, 2-methylene-19-nor-(20S)-1α,25 dihydroxyvitamin D3]
Ovariectomized rats; 0.5 ng/kg/day oral, DEXA, FIG. 3
  percent body fat compared to ovariectomized/vehicle controls: little to no effect; also recorded: noticeable trend for a reduced increase
Ovariectomized rats; 1 ng/kg/day oral, DEXA, FIG. 3
  percent body fat compared to ovariectomized/vehicle controls: little to no effect
Ovariectomized rats; 5 ng/kg/day oral, DEXA, FIG. 3
  percent body fat compared to ovariectomized controls: significant decrease
Ovariectomized rats; 5 ng/kg/day oral, DEXA, FIG. 4
  body fat component compared to ovariectomized-vehicle controls: significantly less body fat
  bone mineral content (BMC) component compared to sham-operated controls: an increase
  lean component compared to sham-operated controls: an increase
  total body weight compared to sham/vehicle controls: significantly increased
Ovariectomized rats; 5 ng/kg/day oral, FIG. 3
  reduction in body fat compared with calcitriol at 200 ng/kg/day: as great an effect
Ovariectomized rats; [4]
  percent body fat compared to ovariectomized controls: significant decrease
  percent body fat compared to sham-operated controls: noticeably less percent body fat
Ovariectomized rats; [5]
  body fat component compared to ovariectomized controls: significantly lower
  body fat component compared to sham-operated controls: less body fat
  body weight compared to ovariectomized controls: significantly reduced
  lean body weight plus bone mineral content relative to sham operated animals: increased
  lean body weight relative to sham operated animals: increased
  total body weight compared to sham-control: virtually the same
Ovariectomized rats; 10 ng/kg/day oral, FIG. 3
  decrease in the fat component compared with the group receiving 200 ng/kg/day calcitriol: greater decrease
Ovariectomized rats; DEXA, FIG. 4
  increase in lean body component and bone mineral component compared with calcitriol at 50 ng/kg/day: more positive effect
Ovariectomized rats; OVX rats, 2MD 10 ng/kg/day oral, DEXA at week 24 (sham-operated group 25%)
  body fat content: 20%
Ovariectomized rats; [6]
  bone mineral content (BMC) relative to sham-operated or ovariectomized controls: noticeable increase
  lean body weight relative to sham-operated or ovariectomized controls: noticeable increase
Ovariectomized rats; starting at the 1 ng/kg/day dose, DEXA, FIG. 4
  fat component relative to OVX-controls: trend for a decrease
Osteoblast cell line
  activity relative to calcitriol in inducing genes in the osteoblast cell line: at least 100 fold
[1]; studies described in Shevde et al.
  bone calcium mobilization activity: high
[2]
  intestinal calcium transport activity: low

B1: hPTH: human parathyroid hormone hPTH, administered sub-cutaneously at 20 μg/kg/day (peptide, UniProt P01270 32-115, looked up)
Parathyroid hormone: SVSEIQLMHNLGKHLNSMERVEWLRKKLQDVHNFVALGAPLAPRDAGSQRPRKKEDNVLVESHEKSLGEADKADVNVLTKAKSQ
modifications: Parathyroid hormone
notes: human parathyroid hormone hPTH, administered sub-cutaneously at 20 μg/kg/day
Ovariectomized rats; 20 μg/kg/day sub-cutaneously, DEXA, FIG. 3
  percent body fat compared to ovariectomized controls: at most only a minor difference
